Measured values reported in patent US7074765B2, “Synthetic peptide analogs of Arg-Pro-Pro-Gly-Phe as selective inhibitors of thrombin and thrombin activation of protease activated receptors 1 and 4” (The Regents of the University of Michigan, priority 2003, dated 2006).
Values joined by “and” are separate entries in the source; they are usually repeats but may differ in a detail not shown here. Equal entries are not always repeated. Square brackets hold non-standard residues; d marks the D form. Ends that are not written are not given here. Oic = O=C(O)[C@@H]1C[C@@H]2CCCC[C@@H]2N1; Igl = N[C@H](C(=O)O)C1Cc2ccccc2C1; Hyp = O=C(O)[C@@H]1C[C@@H](O)CN1; 2Thi = N[C@@H](Cc1cccs1)C(=O)O

T1: recombinant protease activated receptor 1 extracellular domain (rPAR1EC) (Homo sapiens, UniProt P25116)
T1 construct: A portion of the extracellular domain of human PAR1 (Ala^26-Ser^99) (rPAR1EC) was expressed in Escherichia coli; His10-DDDDK (pET19b) (N); made in house; host or cells: E. coli BL21(DE3), pET19b
T1 sequence (P25116 26-99): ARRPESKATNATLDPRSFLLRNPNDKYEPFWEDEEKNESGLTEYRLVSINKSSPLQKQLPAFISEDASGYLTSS

T2: RPPGF (Arg-Pro-Pro-Gly-Phe, SEQ ID NO:4)
T2 sequence: RPPGF

T3: recombinant protease activated receptor 1 extracellular domain (rPAR1EC), human PAR1 Ala26-Ser99, His10-DDDDK fusion (human), P25116
T3 chain: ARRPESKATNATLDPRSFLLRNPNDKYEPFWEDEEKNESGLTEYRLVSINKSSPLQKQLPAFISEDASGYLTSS


Legend:
thrombin = thrombin (Homo sapiens, UniProt P00734); details: read-out: Ki (direct inhibitor of thrombin); cited from earlier work
PC-3 cells = test: Thrombin-induced motility of prostate cancer cells (Boyden chamber); assay type: cell-based; details: 10 μM; 2 nM α-thrombin
Experimental: Motility assays are performed with a modified Boyden chamber (tissue culture-treated, 6.5 mm diameter, 10 μm thickness, 8 μm pores). In the motility assays, 2.5×10^4 cells are plated in the top chamber of non-coated polyethylene teraphthalate (PET) membranes (24-well insert, pore size […]; Becton Dickinson). […] RPMI 10% fetal bovine serum is used as a chemoattractant in the lower chamber. […] The cells that transverse the membranes are stained with Dip-Quick (Jorgensen Laboratories, Loveland, Colo.). Cells in five random fields of view at 200× are counted and expressed as the average number of cells/field of view. […]

[1] = tested on: platelets in platelet-rich plasma; test: γ-thrombin-induced platelet aggregation in platelet-rich plasma; assay type: cell-based, human; details: minimal concentration that blocked γ-thrombin-induced platelet aggregation in platelet-rich plasma
Experimental: Fresh whole blood was collected and mixed with 0.013 M sodium citrate and platelet-rich plasma was prepared according to the method of Meloni et al., J. Biol. Chem. 266, 6786 (1991). Platelet-rich plasma with a normalized platelet count between 2–2.5×10^8 platelets/ml was added to a cuvette of an aggregometer (Chronlog Corp., Havertown, Pa.), standardized using the protocol of Meloni et al., supra. Peptides to be examined were added to the cuvette and the mixture stabilized for a few moments. Once the baseline was stabilized, γ-thrombin (10–70 nM) (Haematologic Technologies, Essex Junction, Vt.) was added to determine the minimal concentration of the agonist necessary to achieve full platelet aggregation. All investigations with peptides were performed using threshold concentrations of γ-thrombin. Aggregation was allowed to proceed for 5 minutes before stopping. When ADP-induced platelet aggregation studies were performed, 1–5 μM ADP (Sigma) was added to the cuvette containing platelet-rich plasma.

[2] = tested on: normal human lung fibroblasts (NHLF); test: α-thrombin-induced calcium mobilization in fibroblasts; assay type: cell-based; details: 0.1 mM peptide; α-thrombin-induced calcium mobilization in fibroblasts
Experimental: The second assay developed to assess peptides from the combinatorial libraries uses inhibition of α-thrombin-induced calcium mobilization in fibroblasts. Normal human lung fibroblasts (NHLF) were purchased from Clonetics, San Diego, Calif., an affiliate of Bio-Wittaker, Walkersville, Md. The cytoplasmic free Ca^2+ concentration ([Ca^2+]i) was measured using the fluorescent Ca^2+ indicator fura-2 (Molecular Probes, Inc., Eugene, Oreg.). Suspension of fibroblasts in Hepes-Tyrode's buffer were loaded with fura-2 by incubation at 37° C. with 2 μM fura-2/acetoxymethyl ester for 45 minutes according to the method of Rasmussen et al., J. Biol. Chem. 268, 14322 (1993). The labeled fibroblasts were separated from excess probe by washing by centrifugation at 1000 rpm (180×g). Aliquots of the labeled fibroblasts were transferred into a quartz cuvette with a magnetic stirrer, which was then placed in a thermostatically controlled chamber at 37° C. in a fluorescence spectrophotometer (Perkin-Elmer LS50B spectrofluorometer, Chicago, Ill.). Reagents, test peptide, and α-thrombin (0.25–2 nM), were sequentially added directly to the cuvette. The excitation wavelengths varied between 340 and 380 nm. Fluorescence was measured by recording emitted light at 510 nm as reported by Fisher et al., Mol Pharm. 35, 195 (1989). The minimum emission was determined on a solubilized fibroblast sample in the presence of 10 mM EDTA; maximum emission was determined on the same sample with 10 mM Ca^2+ added. The intrafibroblast free Ca^2+ concentration was calculated by the method of Grykiewicz et al., J. Biol. Chem. 260, 3440 (1985). […] The KD for fura-2 was assumed to be 224 nM. Rmax and Rmin are the maximum and minimum fluorescence ratios measured at the end of the experiment, respectively; Sf2 and Sb2 are the fluorescence values at 380 nm in the absence and presence of saturating [Ca^2+], respectively. The reaction was monitored for 3–5 minutes.

[3] = tested on: normal human citrated plasma; test: activated partial thromboplastin time (APTT); assay type: biochemical; details: peptide at the concentration that inhibits platelet aggregation
Experimental: (§1) The influence of the various peptide formulations used in the present invention on established coagulation-based assays was determined. The activated partial thromboplastin time (APTT) is performed by mixing 0.05 ml normal human citrated plasma with 0.05 ml activated partial thromboplastin reagent purchased from Organon Teknika, Research Triangle Park, N.C. in the absence or presence of a peptide inhibitor. After incubation for 5 min at 37° C., the mixture is recalcified with 0.05 ml of 30 mM calcium chloride and the time to clot formation is measured in an Amelung KC4A instrument (Sigma Chemical Corp, St. Louis, Mo.) (Hasan et al. Thrombosis and Haemostasis. 82, 1182–1187 (1999)). The prothrombin time (PT) is performed by mixing 0.05 ml normal human citrated plasma with 0.05 ml Simplastin (Organon Teknika, Research Triangle Park, N.C.) followed by incubation for 3 min at 37° C. in the absence or presence of a peptide inhibitor. At the addition of 0.05 ml of 30 mM calcium chloride, the time to clot formation is measured in an KC4A instrument (Sigma Chemical Corp, St. Louis, Mo.) (Hasan et al. Thrombosis and Haemostasis. 82, 1182–1187 (1999)). The thrombin clotting time (TCT) is performed by adding 0.1 ml normal human citrated plasma in the absence or presence of a peptide inhibitor and 0.05 ml of a α-thrombin solution such that the final concentration of the thrombin in the entire mixture was 1 nM. Upon addition of the thrombin, the time to clot formation is measured in an KC4A instrument (Sigma Chemical Corp, St. Louis, Mo.). In FIG. 5, peptide TH146 produces a significant prolongation (p<0.05) of the activated partial thromboplastin time at 15 μM, of the prothrombin time at 60 μM, and the thrombin clotting time at 15 μM. In FIG. 6, peptide MAP4-TH146 produced a significant prolongation (p<0.05) of the activated partial thromboplastin time at 0.195 μM, of the prothrombin time at 3.125 μM, and the thrombin clotting time at 0.39 μM.

[4] = tested on: normal human citrated plasma; test: prothrombin time (PT); assay type: biochemical; details: peptide at the concentration that inhibits platelet aggregation
Experimental: as §1

[5] = tested on: normal human citrated plasma; test: thrombin clotting time (TCT); assay type: biochemical; details: peptide at the concentration that inhibits platelet aggregation
Experimental: as §1

[6] = target: T1, recombinant protease activated receptor 1 extracellular domain (rPAR1EC); test: Inhibition of RPPGF-biotin binding to rPAR1EC; details: 5 mM peptide, 50 μM RPPGF-biotin (FIG. 7); listed in decreasing order
[7] = target: recombinant protease activated receptor 1 extracellular domain (rPAR1EC), human PAR1 Ala26-Ser99, His10-DDDDK fusion (human) (UniProt P25116); test: cell-based or functional assay
[8] = tested on: MAP4-RPPGF (β-Ala-Lys-2Lys-4(Arg-Pro-Pro-Gly-Phe))
[9] = tested on: MAP4-rOicPGF (β-Ala-Lys-2Lys-4(D-Arg-Oic-Pro-Gly-Phe))
[10] = tested on: T2, RPPGF (Arg-Pro-Pro-Gly-Phe, SEQ ID NO:4)
α-thrombin = α-thrombin (Homo sapiens, UniProt P00734); test: cell-based or functional assay
[11] = target: T3, recombinant protease activated receptor …; test: cell-based or functional assay
[12] = target: human α-thrombin (human), P00734; test: cell-based or functional assay

Molecule	Concentration of Peptide [mM] That Gives 100% Inhibition [1] [mM]	Ca^2^+ % Inhibition At 0.1 mM Peptide [2] [%]	APTT (Fold Prolongation over RPPGF) [3] [Fold]	PT (Fold Prolongation over RPPGF) [4] [Fold]	TCT (Fold Prolongation over RPPGF) [5] [Fold]	other results
RPPGFSPFR [Bradykinin, Arg-Pro-Pro-Gly-Phe-Ser-Pro-Phe-Arg]						Ki (thrombin): 170 to 326 µM
hirudin [reference compound]						effect on thrombin-induced PC-3 cell motility (PC-3 cells): block
D-Arg-Oic-Hyp-Gly-Idg [rOicHypGIdg]	0.157	36.7	1.1	1.1	1.7	
D-Arg-Oic-Hyp-Gly-Idg [TH37]						blocking of RPPGF-biotin binding to rPAR1EC by peptides [6]: blocked
MAP4-RPPGF (β-Ala-Lys-2Lys-4(Arg-Pro-Pro-Gly-Phe)) (peptide)						inhibition of thrombocytin cleavage of PAR1 (rPAR1EC, SDS-PAGE) [7]: 0.2 mM and 0.5 mM
[dR][Oic][Oic]G[2Thi] [rOicOicGThi]	0.271	18.2	1.2	1.1	1.1	
D-Arg-Oic-Pro-Gly-Idg ([dR][Oic]PG[Igl]-NH2; N-terminus assumed; SMILES N=C(N)NCCC[C@@H](N)C(=O)N1[C@H](C(=O)N2CCC[C@H]2C(=O)NCC(=O)N[C@H](C(N)=O)C2Cc3ccccc3C2)C[C@@H]2CCCC[C@@H]21) [rOicPGIdg]	0.129	36.2	1.1	1.1	1.5	blocking of RPPGF-biotin binding to rPAR1EC by peptides [6]: blocked
thrombocytin						thrombocytin (16.7 nM) hydrolysis of 1 mM H-D-Phe-Pip-Arg-paranitroanilide in the presence of 1 mM MAP4-RPPGF [8]: RPPGF (SEQ ID NO:4) or MAP4-RPPGF inhibits the ability of these enzymes to hydrolyze their substrates; thrombocytin (16.7 nM) hydrolysis of 1 mM H-D-Phe-Pip-Arg-paranitroanilide (S2238), 0-1.0 mM MAP4-TH146 [9]: MAP4-TH146 inhibits these enzymes' ability to hydrolyze their substrates; thrombocytin (16.7 nM) hydrolysis of 1 mM H-D-Phe-Pip-Arg-paranitroanilide in the presence of 2 mM RPPGF [10]: RPPGF (SEQ ID NO:4) or MAP4-RPPGF inhibits the ability of these enzymes to hydrolyze their substrates
D-Arg-Idg-Tic-Gly-Phe [rIdgTicGF]	0.1	58.44	1.0	1.1	1.2	
[dR][Oic][Hyp]G[2Thi] [rOicHypGThi]	0.157	38	1.1	1.1	1.3	
D-Arg-Oic-Oic-Gly-Idg [rOicOicGIdg]	0.257	28.1	1.1	1.1	1.1	
MAP4-rOicPGF (β-Ala-Lys-2Lys-4(D-Arg-Oic-Pro-Gly-Phe)) (peptide)						inhibition of thrombocytin-induced cleavage of recombinant extracellular domain of human PAR1 (SDS-PAGE) [7]: 0.2 mM; concentration giving significant prolongation (p<0.05) of the APTT of normal human plasma (α-thrombin): 0.195 µM; concentration giving significant prolongation (p<0.05) of the PT of normal human plasma (α-thrombin): 3.12 µM; concentration giving significant prolongation (p<0.05) of the TCT of normal human plasma (α-thrombin): 0.39 µM
RPPGF (modifications not checked) [RPPGF (Arg-Pro-Pro-Gly-Phe, SEQ ID NO:4)]						inhibition of thrombocytin cleavage of recombinant human PAR1 extracellular domain (SDS-PAGE) [11]: 0.5 mM and 1 mM
[dR][Oic]PGF [rOicPGF (D-Arg-Oic-Pro-Gly-Phe)]						concentration giving significant prolongation (p<0.05) of the activated partial thromboplastin time [12]: 15 µM; concentration giving significant prolongation (p<0.05) of the prothrombin time [12]: 60 µM; concentration giving significant prolongation (p<0.05) of the thrombin clotting time [12]: 15 µM; concentration giving significant prolongation of the APTT of normal human plasma [12]: 3.7 µM; concentration giving significant prolongation of the PT of normal human plasma [12]: 30 µM; concentration giving significant prolongation of the TCT of normal human plasma [12]: 3.7 µM
